Converted amounts (≈) assume the structure as drawn. Read-outs that look alike come from different tables or passages of the source. Where no end group is shown, it is not given here.
Assays:
[1] = test system: E. coli ATCC 25922; experiment: microbe, parasite or virus in culture; format: cell-based, Escherichia coli; details: LB, 2 × 10^5 CFU mL^−1, 18 to 24 h, 37°C, three independent experiments
Protocol: (§1) Bacterial cells were cultured at 37°C in the appropriate culture media with shaking (180 rpm). Luria-Bertani broth (LB) (244620; BD Difco) was used for E. coli ATCC 25922, ASEC strains, and B. subtilis KCTC 2217. Nutrient broth (NB) (234000; BD Difco) was used for P. aeruginosa ATCC 27853, S. Typhimurium KCTC 1926, and A. baumannii KCTC 2508. Tryptic soy broth (TSB) (211825; BD Difco) was used for S. aureus ATCC 25923. Finally, brain heart infusion (BHI) (237500; BD Difco) was used for L. monocytogenes KCTC 3710. The antimicrobial activity of each peptide was determined using microdilution assays. To this end, 2-fold serial dilution series of each peptide (from 1 to 64 μM) were added to duplicate media with 10 mM sodium phosphate buffer (pH 7.4). Fifty microliters of the peptide and antibiotic solution was added to each well of a 96-well plate (32096, surface nontreatment; SPL Life Sciences). Then, 50 μL of 2 × 10^5 CFU mL^−1 of bacteria was added to each well, and the samples were incubated for 18 to 24 h without shaking at 37°C.

[2] = test system: MDR E. coli ASEC 10; experiment: microbe, parasite or virus in culture; format: cell-based, Escherichia coli; details: microdilution, LB, 18 to 24 h, 37°C, three independent experiments
Protocol: as §1

[3] = test system: MDR E. coli ASEC 11; experiment: microbe, parasite or virus in culture; format: cell-based, Escherichia coli; details: microdilution, LB, 18 to 24 h, 37°C, three independent experiments
Protocol: as §1

[4] = test system: MDR E. coli ASEC 12; experiment: microbe, parasite or virus in culture; format: cell-based, Escherichia coli; details: microdilution, LB, 18 to 24 h, 37°C, three independent experiments
Protocol: as §1

[5] = test system: MDR E. coli ASEC 13; experiment: microbe, parasite or virus in culture; format: cell-based, Escherichia coli; details: microdilution, LB, 18 to 24 h, 37°C, three independent experiments
Protocol: as §1

[6] = test system: MDR E. coli ASEC 14; experiment: microbe, parasite or virus in culture; format: cell-based, Escherichia coli; details: microdilution, LB, 18 to 24 h, 37°C, three independent experiments
Protocol: as §1

[7] = test system: MDR E. coli ASEC 16; experiment: microbe, parasite or virus in culture; format: cell-based, Escherichia coli; details: microdilution, LB, 18 to 24 h, 37°C, three independent experiments
Protocol: as §1

[8] = test system: MDR E. coli ASEC 17; experiment: microbe, parasite or virus in culture; format: cell-based, Escherichia coli; details: microdilution, LB, 18 to 24 h, 37°C, three independent experiments
Protocol: as §1

[9] = test system: MDR E. coli ASEC 18; experiment: microbe, parasite or virus in culture; format: cell-based, Escherichia coli; details: microdilution, LB, 18 to 24 h, 37°C, three independent experiments
Protocol: as §1

[10] = test system: MDR E. coli ASEC 19; experiment: microbe, parasite or virus in culture; format: cell-based, Escherichia coli; details: microdilution, LB, 18 to 24 h, 37°C, three independent experiments
Protocol: as §1

[11] = test system: MDR E. coli ASEC 1; experiment: microbe, parasite or virus in culture; format: cell-based, Escherichia coli; details: microdilution, LB, 18 to 24 h, 37°C, three independent experiments
Protocol: as §1

[12] = test system: MDR E. coli ASEC 2; experiment: microbe, parasite or virus in culture; format: cell-based, Escherichia coli; details: microdilution, LB, 18 to 24 h, 37°C, three independent experiments
Protocol: as §1

[13] = test system: MDR E. coli ASEC 3; experiment: microbe, parasite or virus in culture; format: cell-based, Escherichia coli; details: microdilution, LB, 18 to 24 h, 37°C, three independent experiments
Protocol: as §1

[14] = test system: MDR E. coli ASEC 4; experiment: microbe, parasite or virus in culture; format: cell-based, Escherichia coli; details: microdilution, LB, 18 to 24 h, 37°C, three independent experiments
Protocol: as §1

[15] = test system: MDR E. coli ASEC 5; experiment: microbe, parasite or virus in culture; format: cell-based, Escherichia coli; details: microdilution, LB, 18 to 24 h, 37°C, three independent experiments
Protocol: as §1

[16] = test system: MDR E. coli ASEC 6; experiment: microbe, parasite or virus in culture; format: cell-based, Escherichia coli; details: microdilution, LB, 18 to 24 h, 37°C, three independent experiments
Protocol: as §1

[17] = test system: MDR E. coli ASEC 7; experiment: microbe, parasite or virus in culture; format: cell-based, Escherichia coli; details: microdilution, LB, 18 to 24 h, 37°C, three independent experiments
Protocol: as §1

[18] = test system: MDR E. coli ASEC 8; experiment: microbe, parasite or virus in culture; format: cell-based, Escherichia coli; details: microdilution, LB, 18 to 24 h, 37°C, three independent experiments
Protocol: as §1

[19] = test system: MDR E. coli ASEC 9; experiment: microbe, parasite or virus in culture; format: cell-based, Escherichia coli; details: microdilution, LB, 18 to 24 h, 37°C, three independent experiments
Protocol: as §1

[20] = test system: MDR E. coli ASEC 2; parameters: method as in Asan hospital; key to susceptibility category: S: susceptible; R: resistant; I: intermediate; details: ref Asan hospital, cited from earlier work; for MIC: ASEC 2 (NDM-7), resistance information of clinical isolate; for susceptibility category: ASEC 2
[21] = test system: MDR E. coli ASEC 4; parameters: method as in Asan hospital; key to susceptibility category: S: susceptible; R: resistant; I: intermediate; details: ref Asan hospital, cited from earlier work; for MIC: ASEC 4 (ESBL), resistance information of clinical isolate; for susceptibility category: ASEC 4
[22] = test system: MDR E. coli ASEC 5; parameters: method as in Asan hospital; key to susceptibility category: S: susceptible; R: resistant; I: intermediate; details: ref Asan hospital, cited from earlier work; for MIC: ASEC 5 (ESBL), resistance information of clinical isolate; for susceptibility category: ASEC 5
[23] = test system: MDR E. coli ASEC 7; parameters: method as in Asan hospital; key to susceptibility category: S: susceptible; R: resistant; I: intermediate; details: ref Asan hospital, cited from earlier work; for MIC: ASEC 7 (ESBL), resistance information of clinical isolate; for susceptibility category: ASEC 7
[24] = test system: MDR E. coli ASEC 8; parameters: method as in Asan hospital; key to susceptibility category: S: susceptible; R: resistant; I: intermediate; details: ref Asan hospital, cited from earlier work; for MIC: ASEC 8 (ESBL), resistance information of clinical isolate; for susceptibility category: ASEC 8
[25] = test system: MDR E. coli ASEC 10; parameters: method as in Asan hospital; key to susceptibility category: S: susceptible; R: resistant; I: intermediate; details: ref Asan hospital, cited from earlier work; for MIC: ASEC 10 (ESBL), resistance information of clinical isolate; for susceptibility category: ASEC 10
[26] = test system: MDR E. coli ASEC 13; parameters: method as in Asan hospital; key to susceptibility category: S: susceptible; R: resistant; I: intermediate; details: ref Asan hospital, cited from earlier work; for MIC: ASEC 13 (AmpC), resistance information of clinical isolate; for susceptibility category: ASEC 13
[27] = test system: MDR E. coli ASEC 16; parameters: method as in Asan hospital; key to susceptibility category: S: susceptible; R: resistant; I: intermediate; details: ref Asan hospital, cited from earlier work; for MIC: ASEC 16 (AmpC), resistance information of clinical isolate; for susceptibility category: ASEC 16
[28] = Escherichia coli, ATCC25922, microdilution, read-out: MIC
[29] = Escherichia coli, read-out: MIC

CO/N=C(\C(=O)N[C@@H]1C(=O)N2C(C(=O)O)=C(COC(C)=O)CS[C@H]12)c1csc(N)n1 [Cefotaxime]
MIC [1, 28]: < 1 µM
MIC [2, 29]: > 32 µM
MIC [3, 29]: > 32 µM
MIC [4, 29]: > 32 µM
MIC [5, 29]: > 32 µM
MIC [6, 29]: > 32 µM
MIC [7, 29]: > 32 µM
MIC [8, 29]: > 32 µM
MIC [9, 29]: > 32 µM
MIC [10, 29]: > 32 µM
MIC [11, 29]: > 32 µM
MIC [12, 29]: > 32 µM
MIC [13, 29]: > 32 µM
MIC [14, 29]: > 32 µM
MIC [15, 29]: > 32 µM
MIC [16, 29]: > 32 µM
MIC [17, 29]: > 32 µM
MIC [18, 29]: > 32 µM
MIC [19, 29]: > 32 µM
MIC [20]: > 32 µg/mL
susceptibility category [20]: R
MIC [21]: > 32 µg/mL
susceptibility category [21]: R
MIC [22]: > 32 µg/mL
susceptibility category [22]: R
MIC [23]: > 32 µg/mL
susceptibility category [23]: R
MIC [24]: > 32 µg/mL
susceptibility category [24]: R
MIC [25]: > 32 µg/mL
susceptibility category [25]: R
MIC [26]: > 32 µg/mL
susceptibility category [26]: R
MIC [27]: > 32 µg/mL
susceptibility category [27]: R

CC(C)(O/N=C(\C(=O)N[C@@H]1C(=O)N2C(C(=O)[O-])=C(C[n+]3ccccc3)CS[C@H]12)c1csc(N)n1)C(=O)O [Ceftazidime]
MIC [1, 28]: < 1 µM
MIC [2, 29]: 32 µM (≈ 17.5 µg/mL)
MIC [3, 29]: > 32 µM
MIC [4, 29]: > 32 µM
MIC [5, 29]: > 32 µM
MIC [6, 29]: > 32 µM
MIC [7, 29]: > 32 µM
MIC [8, 29]: > 32 µM
MIC [9, 29]: > 32 µM
MIC [10, 29]: > 32 µM
MIC [11, 29]: > 32 µM
MIC [12, 29]: > 32 µM
MIC [13, 29]: > 32 µM
MIC [14, 29]: > 32 µM
MIC [15, 29]: > 32 µM
MIC [16, 29]: > 32 µM
MIC [17, 29]: 16 µM (≈ 8.75 µg/mL)
MIC [18, 29]: > 32 µM
MIC [19, 29]: > 32 µM
MIC [20]: > 16 µg/mL
susceptibility category [20]: R
MIC [21]: > 16 µg/mL
susceptibility category [21]: R
MIC [22]: > 16 µg/mL
susceptibility category [22]: R
MIC [23]: > 16 µg/mL
susceptibility category [23]: R
MIC [24]: > 16 µg/mL
susceptibility category [24]: R
MIC [25]: 16 µg/mL (≈ 29.3 µM)
susceptibility category [25]: R
MIC [26]: > 16 µg/mL
susceptibility category [26]: R
MIC [27]: > 16 µg/mL
susceptibility category [27]: R

C[C@@H](O)[C@H]1C(=O)N2C(C(=O)O)=C(S[C@@H]3CN[C@H](C(=O)N(C)C)C3)[C@H](C)[C@H]12 [Meropenem]
MIC [1, 28]: < 1 µM
MIC [2, 29]: < 1 µM
MIC [3, 29]: < 1 µM
MIC [4, 29]: 16 µM (≈ 6.14 µg/mL)
MIC [5, 29]: 2 µM (≈ 0.767 µg/mL)
MIC [6, 29]: 8 µM (≈ 3.07 µg/mL)
MIC [7, 29]: < 1 µM
MIC [8, 29]: < 1 µM
MIC [9, 29]: < 1 µM
MIC [10, 29]: 8 µM (≈ 3.07 µg/mL)
MIC [11, 29]: 1 µM (≈ 0.383 µg/mL)
MIC [12, 29]: > 32 µM
MIC [13, 29]: > 32 µM
MIC [14, 29]: > 32 µM
MIC [15, 29]: 8 µM (≈ 3.07 µg/mL)
MIC [16, 29]: 16 µM (≈ 6.14 µg/mL)
MIC [17, 29]: < 1 µM
MIC [18, 29]: < 1 µM
MIC [19, 29]: < 1 µM
MIC [20]: > 8 µg/mL
susceptibility category [20]: R
MIC [21]: > 8 µg/mL
susceptibility category [21]: R
MIC [22]: <= 4 μg mL-1
susceptibility category [22]: S
MIC [23]: <= 1 μg mL-1
susceptibility category [23]: S
MIC [24]: <= 1 μg mL-1
susceptibility category [24]: S
MIC [25]: <= 1 μg mL-1
susceptibility category [25]: S
MIC [26]: > 8 µg/mL
susceptibility category [26]: R
MIC [27]: <= 1 μg mL-1
susceptibility category [27]: S

FKFLARTGKFL-NH2 [PN5]
MIC ([1]; microdilution): 16 (21.22) μM
MIC [2]: 8 (10.61) μM
MIC [3]: 2 (2.65) μM
MIC [4]: 2 (2.65) μM
MIC [5]: 8 (10.61) μM
MIC [6]: 2 (2.65) μM
MIC [7]: 4 (5.30) μM
MIC [8]: 8 (10.61) μM
MIC [9]: 16 (21.22) μM
MIC [10]: 8 (10.61) μM
MIC [11]: 8 (10.61) μM
MIC [12]: 2 (2.65) μM
MIC [13]: 8 (10.61) μM
MIC [14]: 4 (5.30) μM
MIC [15]: 8 (10.61) μM
MIC [16]: 4 (5.30) μM
MIC [17]: 8 (10.61) μM
MIC [18]: 4 (5.30) μM
MIC [19]: 16 (21.22) μM

Source: article PMC9603901, “Therapeutic Potential of Antimicrobial Peptide PN5 against Multidrug-Resistant E. coli and Anti-Inflammatory Activity in a Septic Mouse Model” (Microbiology Spectrum, 2022)
